Experimental findings from publication PMC9482658, “Mechanistic understanding of human SLFN11” (Nature Communications, 2022) are described below.

One series deals with T1, SLFN5 (Homo sapiens, UniProt Q08AF3).
T1 construct: recombinant
T1 sequence (Q08AF3 1-891): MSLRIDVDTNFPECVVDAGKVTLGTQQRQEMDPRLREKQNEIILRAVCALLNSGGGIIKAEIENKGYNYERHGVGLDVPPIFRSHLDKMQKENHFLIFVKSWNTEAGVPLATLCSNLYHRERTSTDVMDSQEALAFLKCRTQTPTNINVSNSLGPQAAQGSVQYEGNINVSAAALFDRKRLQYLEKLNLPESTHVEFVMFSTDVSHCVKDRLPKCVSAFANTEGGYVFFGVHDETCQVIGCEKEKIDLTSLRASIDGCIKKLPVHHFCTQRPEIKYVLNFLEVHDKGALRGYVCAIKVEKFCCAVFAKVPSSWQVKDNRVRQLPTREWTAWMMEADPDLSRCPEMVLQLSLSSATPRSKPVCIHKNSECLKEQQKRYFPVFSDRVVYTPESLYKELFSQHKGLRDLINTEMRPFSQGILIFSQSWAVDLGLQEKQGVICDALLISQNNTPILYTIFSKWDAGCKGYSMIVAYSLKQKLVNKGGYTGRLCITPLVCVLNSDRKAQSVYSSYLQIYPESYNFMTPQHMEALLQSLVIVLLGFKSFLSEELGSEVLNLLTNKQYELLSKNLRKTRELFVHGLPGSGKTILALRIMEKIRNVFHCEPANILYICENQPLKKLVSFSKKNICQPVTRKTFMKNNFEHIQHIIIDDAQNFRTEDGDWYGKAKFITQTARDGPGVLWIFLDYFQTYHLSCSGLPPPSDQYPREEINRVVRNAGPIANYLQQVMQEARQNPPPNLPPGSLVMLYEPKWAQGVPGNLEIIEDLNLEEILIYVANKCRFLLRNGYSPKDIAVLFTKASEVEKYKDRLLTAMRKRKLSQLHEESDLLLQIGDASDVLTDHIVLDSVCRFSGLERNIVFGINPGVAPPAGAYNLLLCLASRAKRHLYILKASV
In words: nanoDSF thermal unfolding (Tycho NT.[…]). Conditions: 1 mM nucleotide, 300 nM protein; 25 mM Tris pH 7.5, 60 mM NaCl, 2 mM MgCl2, 1 mM DTT. It is filed as binding. Background: Differential scanning fluorimetry follows unfolding on heating by fluorescence.

Series [1] concerns the molecule itself. In words: cryo-EM structure; SLFN11^E209A at 5 uM; 50 mM glycine pH 9, 200 mM NaCl, 2 mM MgCl2, 1 mM DTT; dimer reconstructed in C2 symmetry; monomer reconstructed from another dataset.
Series [2] deals with the molecule itself. In words: mass photometry; 50 nM SLFN11 in 25 mM Tris pH 7.5, 2 mM MgCl2, 1 mM DTT with variable concentrations of NaCl; 100 or 300 nM 60 nt ssDNA added in the stabilisation experiment; monomer-dimer equilibrium.

The term stoichiometry N denotes the number of molecules, sites or subunits per partner or assembly.

For `Nc1ncnc2c1ncn2[C@@H]1O[C@H](COP(=O)(O)OP(=O)(O)OP(O)(O)=S)[C@@H](O)[C@H]1O` [ATPγS], the unfolding temperature increase entry at SLFN5 was “SLFN5 shows a significant increase in unfolding temperature in presence of ATP and ATPγS”. As for `Nc1ncnc2c1ncn2[C@@H]1O[C@H](COP(=O)(O)OP(=O)(O)OP(=O)(O)O)[C@@H](O)[C@H]1O` [ATP], the unfolding temperature increase result at SLFN5 is “SLFN5 shows a significant increase in unfolding temperature in presence of ATP and ATPγS”.

B1: full-length human SLFN11 E209A (enzyme, UniProt Q7Z7L1 1-901, looked up)
chain: MEANQCPLVVEPSYPDLVINVGEVTLGEENRKKLQKIQRDQEKERVMRAACALLNSGGGVIRMAKKVEHPVEMGLDLEQSLRELIQSSDLQAFFETKQQGRCFYIFVKSWSSGPFPEDRSVKPRLCSLSSSLYRRSETSVRSMDSREAFCFLKTKRKPKILEEGPFHKIHKGVYQELPNSDPADPNSDPADLIFQKDYLEYGEILPFPASQLVEFKQFSTKHFQEYVKRTIPEYVPAFANTGGGYLFIGVDDKSREVLGCAKENVDPDSLRRKIEQAIYKLPCVHFCQPQRPITFTLKIVNVLKRGELYGYACMIRVNPFCCAVFSEAPNSWIVEDKYVCSLTTEKWVGMMTDTDPDLLQLSEDFECQLSLSSGPPLSRPVYSKKGLEHKKELQQLLFSVPPGYLRYTPESLWRDLISEHRGLEELINKQMQPFFRGILIFSRSWAVDLNLQEKPGVICDALLIAQNSTPILYTILREQDAEGQDYCTRTAFTLKQKLVNMGGYTGKVCVRAKVLCLSPESSAEALEAAVSPMDYPASYSLAGTQHMEALLQSLVIVLLGFRSLLSDQLGCEVLNLLTAQQYEIFSRSLRKNRELFVHGLPGSGKTIMAMKIMEKIRNVFHCEAHRILYVCENQPLRNFISDRNICRAETRKTFLRENFEHIQHIVIDEAQNFRTEDGDWYGKAKSITRRAKGGPGILWIFLDYFQTSHLDCSGLPPLSDQYPREELTRIVRNADPIAKYLQKEMQVIRSNPSFNIPTGCLEVFPEAEWSQGVQGTLRIKKYLTVEQIMTCVADTCRRFFDRGYSPKDVAVLVSTAKEVEHYKYELLKAMRKKRVVQLSDACDMLGDHIVLDSVRRFSGLERSIVFGIHPRTADPAILPNVLICLASRAKQHLYIFPWGGH
notes: Schlafen 11 (SLFN11), human, full length, nuclease active site mutant E209A; Made by site-directed mutagenesis of the wild-type construct; source: Trichoplusia ni High Five insect cells, expressed and purified as the wild-type protein
In the case of B1, the binding result in series [1] is listed as “binds”.

B2: full-length human SLFN11 (Schlafen 11), wild type (enzyme, UniProt Q7Z7L1 1-901, looked up)
chain: MEANQCPLVVEPSYPDLVINVGEVTLGEENRKKLQKIQRDQEKERVMRAACALLNSGGGVIRMAKKVEHPVEMGLDLEQSLRELIQSSDLQAFFETKQQGRCFYIFVKSWSSGPFPEDRSVKPRLCSLSSSLYRRSETSVRSMDSREAFCFLKTKRKPKILEEGPFHKIHKGVYQELPNSDPADPNSDPADLIFQKDYLEYGEILPFPESQLVEFKQFSTKHFQEYVKRTIPEYVPAFANTGGGYLFIGVDDKSREVLGCAKENVDPDSLRRKIEQAIYKLPCVHFCQPQRPITFTLKIVNVLKRGELYGYACMIRVNPFCCAVFSEAPNSWIVEDKYVCSLTTEKWVGMMTDTDPDLLQLSEDFECQLSLSSGPPLSRPVYSKKGLEHKKELQQLLFSVPPGYLRYTPESLWRDLISEHRGLEELINKQMQPFFRGILIFSRSWAVDLNLQEKPGVICDALLIAQNSTPILYTILREQDAEGQDYCTRTAFTLKQKLVNMGGYTGKVCVRAKVLCLSPESSAEALEAAVSPMDYPASYSLAGTQHMEALLQSLVIVLLGFRSLLSDQLGCEVLNLLTAQQYEIFSRSLRKNRELFVHGLPGSGKTIMAMKIMEKIRNVFHCEAHRILYVCENQPLRNFISDRNICRAETRKTFLRENFEHIQHIVIDEAQNFRTEDGDWYGKAKSITRRAKGGPGILWIFLDYFQTSHLDCSGLPPLSDQYPREELTRIVRNADPIAKYLQKEMQVIRSNPSFNIPTGCLEVFPEAEWSQGVQGTLRIKKYLTVEQIMTCVADTCRRFFDRGYSPKDVAVLVSTAKEVEHYKYELLKAMRKKRVVQLSDACDMLGDHIVLDSVRRFSGLERSIVFGIHPRTADPAILPNVLICLASRAKQHLYIFPWGGH
notes: Schlafen 11 (SLFN11), human, full length; domains: Slfn core 1-353, linker 354-576, helicase 577-901; residues 7-899 built in the model; The construct has an HRV 3C cleavage site after the N-terminal double FLAG tag; The protein was eluted with Flag peptide and no cleavage is described; It is in a monomer-dimer equilibrium in solution; also called SLFN11^wt; source: SEC for cryo-EM samples
Take B2: the “stoichiometry N” value in series [2] turned out to be 2.
